According to patent US9408859B2, “Pharmaceutical compositions useful for preventing and treating cancer” (Mitotech SA, priority 2007, dated 2016):
Peptide text beside a SMILES is read from it. * marks the point of attachment. Cbz = O=C(OCc1ccccc1)*; CH2F = FC*

Experiments:
[1] = tested on: human rhabdomyosarcoma cell line (RD); assay: Apoptosis in RD cells (Hoechst staining, propidium iodide flow cytometry); type: cell-based; conditions: for Induction of apoptosis: 1 mM NAC or 100 mM Trolox for 24 hours
Experimental: To determine the viability of the cells, chromatine condensation and fragmentation was analyzed in similarly-treated cells (20 nM SkQ or 1 mM NAC or 100 mM Trolox for 24 hours and 1 μm FCCP one hour before SkQ1 where indicated) after staining with Hoechst 3342 (GenScript, Cat. No. L00309, performed according to manufacture manual http://www.genscript.com/tech_guide/TM0361.pdf). The cells were then examined using an Axiovert fluorescent microscope equipped with objectives 20× (dry) and 100× (oil immersion Neofluar) (Carl Zeiss).
Further evidence of apoptosis was obtained by analysis of DNA content in the cellular population using flow cytometry. Cells were incubated with 0.05% ethanol was added (control) or with 20 nM SkQ1 for 24 hours, and then fixed and stained with propidium iodide (5 μM). They were then analyzed by flow cytometry using a FC-500 FACS (Beckman Coulter, Inc., Brea, Calif.).

[2] = tested on: tumor xenografts (tumors of epithelial cancers); conditions: as stated in WO2006005759, cited from earlier work
[3] = tested on: human rhabdomyosarcoma cell line (RD); assay: RD cell morphology, attachment and multinuclear cells; type: cell-based; conditions: 20 nM, pretreatment for 24 hours
Experimental: In the following experiment, a human rhabdomyosarcoma cell line (RD) purchased from the ATCC (#CCL-136) was used. These cells were isolated from a […] 7 years ago and are widely accepted as a model for studies of rhabdomyosarcoma in vitro and in vivo.
The cells were grown in Dulbecco's modified Eagle's medium (DMEM, Gibco®, Invitrogen, Carlsbad, Calif.) supplemented with 10% FBS. The cells were treated with 20 nM SkQ (SkQ1, SkQR1, SkQB1, or SkQBP1), or with a non-targeted antioxidant (1 mM NAC, or 100 μM Trolox) 24 to 72 hours before evaluation. In some experiments 1 μM of the protonophorous uncoupler FCCP was added 1 hour before the addition of SkQ1 to depolarize the mitochondrial membrane, and thus to prevent the electrophoretic accumulation of SkQ in the mitochondrial interior. The cells were then stained with rabbit polyclonal antibodies against actin (1:1000) (Sigma-Aldrich Corp., Baleras, Russia) and monoclonal antibody DM1A against tubulin (1:1000) (Sigma-Aldrich Corp.), and their morphology examined using an Axiovert fluorescent microscope equipped with objectives 20× (dry) and 100× (oil immersion Neofluar) (Carl Zeiss, Germany).

Lung Lewis's carcinoma = assay: SkQ1 combined with doxorubicin on growth of lung Lewis's carcinoma; type: in vivo, mouse; conditions: regime per group
Experimental: For development of oncological diseases joint therapy that combines SkQ1 and chemotherapy, a study on SkQ1 influence on single doxorubicin injection efficiency was performed (one of the mechanisms of the preparation is activation of oxidative processes in normal and cancerous cells). SkQ1 was introduced before, simultaneously, or after introduction of doxorubicin in maximum dose of 500 nM/kg (in order to block oxidative mechanism of doxorubicin influence).
Doxorubicin was applied before, after, and during the course of SkQ1.

## N#CC(C#N)=NNc1ccc(OC(F)(F)F)cc1 [FCCP]
[1]; 1 μm FCCP one hour before SkQ1
  Effect on pro-apoptotic action of SkQs: prevented their pro-apoptotic action

## COC1=C(OC)C(=O)C(CCCCCCCCCC[P+](c2ccccc2)(c2ccccc2)c2ccccc2)=C(C)C1=O [MitoQ]
[2]
  necrosis: increased necrosis
  vascularization of the tumor xenografts: decreased vascularization
[2]; no experimental data shown
  tumor size: tumor size reduction

## COc1cc2c(cc1OC)-c1c(CC(=O)OCCCCCCCC3=CC(=O)C(C)=C(C)C3=O)c3ccc(OC)c(OC)c3c[n+]1CC2 [SkQBP1]
[3]
  Cell morphology: induced the formation of elongated cells

## Cc1c(C)c2c(c(C)c1O)CCC(C)(C(=O)O)O2 (centres unmarked) [Trolox]
[1]
  Induction of apoptosis: induced apoptosis in RD cells but only at much higher concentrations

## COc1ccc2c(CC(=O)OCCCCCCCC3=CC(=O)C(C)=C(C)C3=O)c3[n+](cc2c1OC)CCc1cc2c(cc1-3)OCO2 [SkQB1]
[3]
  Cell morphology: induced the formation of elongated cells

## COC(=O)C[C@H](NC(=O)[C@H](C)NC(=O)[C@@H](NC(=O)OCc1ccccc1)C(C)C)C(=O)CF [zVADfmk] (Cbz-Val-Ala-Asp(OMe)-CH2F)
[1]; pan-caspase inhibitor
  Effect on cell death caused by SkQs: Cell death was prevented

## COc1cccc2c1C(=O)c1c(O)c3c(c(O)c1C2=O)C[C@@](O)(C(=O)CO)C[C@@H]3O[C@H]1C[C@H](N)[C@H](O)[C@H](C)O1 [DOX, doxorubicin, reference compound]
Lung Lewis's carcinoma; Day 10
  TGS %, by tumor volume: 26%
Lung Lewis's carcinoma; Day 14
  TGS %, by tumor volume: 38%
Lung Lewis's carcinoma; Day 14, listed as doxorubicin
  TGS %, by tumor volume: 36%
Lung Lewis's carcinoma; Day 17
  TGS %, by tumor volume: 35%
Lung Lewis's carcinoma; Day 21
  TGS %, by tumor volume: 30%

## CC(=O)N[C@@H](CS)C(=O)O [NAC]
[1]
  Induction of apoptosis: induced apoptosis in RD cells but only at much higher concentrations
